Assay [1] relates to Pseudomonas aeruginosa (ATCC 27853) biofilms. Description: Transmission light photometry of MB bound to stained biofilms. It counts as cell-based. As to conditions: P. aeruginosa biofilm, 0.01% MB, 5 min stain, n=6. The method, then:
(§1) Staphylococcus aureus (ATCC 6538) and Pseudomonas aeruginosa (ATCC 27853) biofilms were grown for the respective experiments (2 days) in a CBR 90 CDC biofilm reactor (BioSurface Technologies Corporation, Bozeman, Mont.) on either titanium, cobalt chromium, polyether ether ketone (PEEK), and polyethylene (PE) coupons using previously established methods. Briefly, a 0.5 McFarland standard (˜7.5×10^7 colony forming units (CFU)) was made from a 24 hour tryptic soy agar plate culture; 1 mL was then used to inoculate 500 mL of 100% Brain Heart Infusion (BHI) broth in the biofilm reactor. The reactor and its contents were incubated at 34° C. on a hot plate with baffle rotation for 24 hours. […] Quantification of biofilm bioburden was performed on representative coupons from each reactor by dispersing the respective biofilm into 2 mL of fresh 1× phosphate buffered saline (PBS) following an established protocol: sequentially vortexing for 1 minute, sonicating for 10 minutes and vortexing […]. The CFUs were calculated by 10-fold serial dilution plating and colony counting. […]
(§2) Transmission photometry was used to determine the amount of MB bound to biofilms grown and stained using the above protocols. […] The exposure was fixed for all images analyzed; ambient light sources were eliminated by darkening the room. […]

Assay [2] concerns Staphylococcus aureus (ATCC 6538) biofilms. The description is as above. It counts as cell-based. As to conditions: S. aureus biofilm, 0.01% MB, 5 min stain, n=6. How it is done:
as §1, §2

The subject of a further assay is P. aeruginosa biofilms. Description: Visual MB staining of biofilms on orthopedic coupons, confirmed by SEM. As to conditions: P. aeruginosa biofilms on titanium, cobalt chromium, polyethylene, PEEK coupons; dilute MB. It counts as cell-based, Pseudomonas aeruginosa. The method, then:
(§3) Staphylococcus aureus (ATCC 6538) and Pseudomonas aeruginosa (ATCC 27853) biofilms were grown for the respective experiments (2 days) in a CBR 90 CDC biofilm reactor (BioSurface Technologies Corporation, Bozeman, Mont.) on either titanium, cobalt chromium, polyether ether ketone (PEEK), and polyethylene (PE) coupons using previously established methods. Briefly, a 0.5 McFarland standard (˜7.5×10^7 colony forming units (CFU)) was made from a 24 hour tryptic soy agar plate culture; 1 mL was then used to inoculate 500 mL of 100% Brain Heart Infusion (BHI) broth in the biofilm reactor. The reactor and its contents were incubated at 34° C. on a hot plate with baffle rotation for 24 hours. After 24 hours, the reactor was flushed continuously with 10% BHI at 6.94 mL/min for the subsequent 24 hours. Prior to subsequent work, the biofilm coupons were removed aseptically and rinsed in PBS. Quantification of biofilm bioburden was performed on representative coupons from each reactor by dispersing the respective biofilm into 2 mL of fresh 1× phosphate buffered saline (PBS) following an established protocol: sequentially vortexing for 1 minute, sonicating for 10 minutes and vortexing […]. The CFUs were calculated by 10-fold serial dilution plating and colony counting. […]

In another assay the test system is S. aureus biofilms. The description is as above. The class given is cell-based, Staphylococcus aureus. As to conditions: S. aureus biofilms on titanium, cobalt chromium, polyethylene, PEEK coupons; dilute MB. How it is done:
as §3

Consider `CN(C)c1ccc2nc3ccc(=[N+](C)C)cc-3sc2c1` [MB, methylene blue], for which the “number of MB molecules per CFU” value in assay [1] was 2.84×10^7 molecules/CFU; in assay [2] it was 6.95×10^6 molecules/CFU. The “visual staining of biofilm” value in the assay with P. aeruginosa biofilms and in the assay with S. aureus biofilms was “visually turned blue” each time.

Source of the values: patent publication US20210386505A1, “BACTERIAL BIOFILM STAINING DEVICE AND METHODS OF USE” (University of Utah Research Foundation, priority 2020, published 2021).
